Results on ten molecules are retold here after patent publication US9981972B2, “N-hydroxy bicyclic hydantoin carbamates as tools for identification of serine hydrolase targets” (ABIDE THERAPEUTICS, INC., priority 2014, dated 2018).

What all share (test): Gel-based competitive ABPP in vitro, mouse brain membrane proteome
What all share (type): biochemical

The target of assay [1] is T1, LYPLA1 (Mus musculus, UniProt P97823).
T1 construct: a complex proteome endogenously expressing LYPLA1/2 was incubated with test compound; from tissue; host or cells: mouse brain, membrane fraction
The essentials: (§1)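 Mouse brain membrane proteome (1 mg/mL in DPBS) was treated with compound (0.1-100 μM) for 30 min at 37 °C, then labeled with FP-Rh (2 μM final, 30 min, 25 °C). Bands were resolved by SDS-PAGE and scanned in-gel, with inhibition taken from band optical density versus DMSO. Targets counted as active or anti-targets at ≥50% inhibition.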

Assay [2] concerns the target T2, LYPLA2 (Mus musculus, UniProt Q9WTL7).
T2 construct: a complex proteome endogenously expressing LYPLA1/2 was incubated with test compound; from tissue; host or cells: mouse brain, membrane fraction
The essentials: as §1

Assay [3] addresses T3, ABHD12 (Mus musculus, UniProt Q99LR1).
T3 construct: from tissue; host or cells: mouse brain, membrane fraction
T3 sequence (Q99LR1 1-398): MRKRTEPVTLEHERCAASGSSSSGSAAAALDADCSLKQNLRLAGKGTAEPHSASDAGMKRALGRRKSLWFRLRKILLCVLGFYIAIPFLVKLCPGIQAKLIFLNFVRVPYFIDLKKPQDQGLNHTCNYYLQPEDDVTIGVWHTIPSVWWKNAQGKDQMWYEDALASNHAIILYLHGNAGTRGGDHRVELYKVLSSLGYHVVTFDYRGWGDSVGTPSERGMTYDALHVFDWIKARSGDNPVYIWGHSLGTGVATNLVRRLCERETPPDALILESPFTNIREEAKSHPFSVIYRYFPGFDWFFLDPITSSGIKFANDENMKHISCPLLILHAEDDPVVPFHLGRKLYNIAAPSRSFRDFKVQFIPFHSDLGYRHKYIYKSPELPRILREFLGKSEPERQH
Particulars: mouse brain (mem) proteome. As to the method:
(§2) Assay Overview: The purpose of this assay was to determine whether test compounds can inhibit LYPLA1 and LYPLA2 in a complex proteomic lysate and to assess anti-target inhibition using a competitive activity-based proteomic profiling (ABPP) assay. In this assay, a complex proteome endogenously expressing LYPLA1/2 was incubated with test compound followed by reaction with a rhodamine-conjugated fluorophosphonate (FP-Rh) serine-hydrolase specific activity-based probe. The reaction products were separated by SDS-PAGE and visualized in-gel using a flatbed fluorescence scanner. The percentage activity remaining was determined by measuring the integrated optical density of the bands. […] Percent inhibition was calculated relative to a DMSO (no compound) control.
(§3) Protocol Summary: Mouse brain membrane proteome (50 μL reaction volume, 1 mg/mL in DPBS) was treated with 0.1-100 μM test compound (1 μL of a 50× stock in DMSO) for 30 minutes at 37° C. FP-Rh (1 μL of 50× stock in DMSO, Thermo #88318) was added to a final concentration of 2 μM. The reactions were incubated for 30 minutes at 25° C., quenched with 16 μL 4×SDS-PAGE loading buffer (reducing), separated by SDS-PAGE and visualized by in-gel fluorescent scanning. The percentage activity remaining was determined by measuring the integrated optical density of the bands relative to a DMSO-only (no compound) control. Assay Cutoff: Compounds with ≥50% inhibition of targets at 1 μM test compound concentration were considered active.

Assay [4] concerns the target T4, ABHD3 (Mus musculus, UniProt Q91ZH7).
T4 construct: from tissue; host or cells: mouse brain, membrane fraction
T4 sequence (Q91ZH7 1-411): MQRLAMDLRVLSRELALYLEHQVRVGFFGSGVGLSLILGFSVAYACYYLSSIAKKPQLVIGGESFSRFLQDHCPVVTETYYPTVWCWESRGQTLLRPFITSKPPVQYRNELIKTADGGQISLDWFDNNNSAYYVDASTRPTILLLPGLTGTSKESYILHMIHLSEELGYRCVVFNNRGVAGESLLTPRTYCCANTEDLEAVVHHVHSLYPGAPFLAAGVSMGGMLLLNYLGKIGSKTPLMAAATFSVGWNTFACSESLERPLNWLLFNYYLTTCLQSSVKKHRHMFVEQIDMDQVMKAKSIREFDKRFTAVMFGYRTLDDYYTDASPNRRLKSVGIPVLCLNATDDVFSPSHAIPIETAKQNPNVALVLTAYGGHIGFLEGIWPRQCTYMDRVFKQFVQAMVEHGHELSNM
The note with it: mouse brain (mem) proteome. As to the method: as §2, §3

The target of assay [5] is T5, PLA2G7 (Mus musculus, UniProt Q60963).
T5 construct: from tissue; host or cells: mouse brain, membrane fraction
T5 sequence (Q60963 22-440): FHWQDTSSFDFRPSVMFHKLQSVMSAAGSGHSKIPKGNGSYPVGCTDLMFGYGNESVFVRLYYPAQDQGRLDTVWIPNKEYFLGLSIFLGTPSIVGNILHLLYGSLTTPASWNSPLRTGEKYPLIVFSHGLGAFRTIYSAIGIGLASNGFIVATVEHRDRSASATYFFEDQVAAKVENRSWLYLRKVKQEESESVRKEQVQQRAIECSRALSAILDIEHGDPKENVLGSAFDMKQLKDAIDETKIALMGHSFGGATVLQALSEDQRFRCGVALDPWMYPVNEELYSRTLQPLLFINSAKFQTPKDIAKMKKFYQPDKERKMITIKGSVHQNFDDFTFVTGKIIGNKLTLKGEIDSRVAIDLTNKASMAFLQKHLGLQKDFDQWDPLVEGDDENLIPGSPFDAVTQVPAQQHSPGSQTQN
Particulars: mouse brain (mem) proteome. As to the method:
as §2, §3

Setting [6] is: 20 μM, mouse brain (mem) proteome.

T1 sequence (P97823 whole entry): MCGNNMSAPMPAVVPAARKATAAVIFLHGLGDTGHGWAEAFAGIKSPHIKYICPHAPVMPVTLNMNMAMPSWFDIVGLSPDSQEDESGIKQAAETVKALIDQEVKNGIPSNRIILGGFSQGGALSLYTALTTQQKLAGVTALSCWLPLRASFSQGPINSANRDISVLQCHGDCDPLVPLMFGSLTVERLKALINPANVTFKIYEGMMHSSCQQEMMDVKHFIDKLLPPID
T2 sequence (Q9WTL7 whole entry): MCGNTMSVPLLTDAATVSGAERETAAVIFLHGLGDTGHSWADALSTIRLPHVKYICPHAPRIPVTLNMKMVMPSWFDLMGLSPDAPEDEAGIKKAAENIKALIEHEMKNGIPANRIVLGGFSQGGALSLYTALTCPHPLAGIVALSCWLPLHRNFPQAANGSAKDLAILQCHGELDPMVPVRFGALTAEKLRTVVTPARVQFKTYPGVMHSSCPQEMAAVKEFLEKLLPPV

With `O=C(ON1C(=O)[C@@H]2CN(C(=O)N3CCOCC3)CCN2C1=O)N1CCN(CCc2ccc(Cl)cc2)CC1` [Compound 41, (S)-7-(morpholine-4-carbonyl)-1,3-dioxo-hexahydroimidazo[1,5-a]pyrazin-2(3H)-yl 4-(4-chlorophenethyl)piperazine-1-carboxylate], the “LYPLA1 in vitro enzyme activity, % @ 10 μM” value (shortened to “LYPLA1 … % @ 10 μM”) in assay [1] (mouse brain (mem) proteome) turned out to be 100% @. The “LYPLA2 in vitro enzyme activity, % @ 10 μM” value (“LYPLA2 … % @ 10 μM” for short) in assay [2] (mouse brain (mem) proteome) worked out at 100% @. Moreover, in assay [3], the “ABHD12 in vitro enzyme activity, % @ 10 μM” value (“ABHD12 … % @ 10 μM” below) stood at 0% @. The “ABHD3 in vitro enzyme activity, % @ 10 μM” value (“ABHD3 … % @ 10 μM” for short) in assay [4] was 0% @. For the same molecule, the “PLA2G7 in vitro enzyme activity, % @ 10 μM” value (“PLA2G7 … % @ 10 μM” for short) in assay [5] turned out to be 0% @.
Consider `O=C(ON1C(=O)[C@@H]2CN(C(=O)N3CCOCC3)CCN2C1=O)N1CCC(CCc2ccc(Cl)cc2)CC1` [Compound 50, (S)-7-(morpholine-4-carbonyl)-1,3-dioxohexahydroimidazo[1,5-a]pyrazin-2(3H)-yl 4-(4-chloro-phenethyl)piperidine-1-carboxylate], for which the “LYPLA1 in vitro enzyme activity, % @ 1 μM” value in assay [1] (mouse brain (mem) proteome) amounted to 100% @. The “LYPLA2 in vitro enzyme activity, % @ 1 μM” value in assay [2] (mouse brain (mem) proteome) is on record as 100% @. Further, the “ABHD12 … % @ 10 μM” value in assay [3] was 0% @. The “ABHD3 … % @ 10 μM” value in assay [4] is recorded as 0% @. Further, in assay [5], the “PLA2G7 … % @ 10 μM” value amounted to 100% @.
For `C#CCOc1ccc(N2CCN(C(=O)ON3C(=O)[C@H]4CN(Cc5ccc(Oc6ccccc6)cc5)CCN4C3=O)CC2)cc1` [Compound 45, (R)-1,3-dioxo-7-(4-phenoxybenzyl)-hexahydroimidazo[1,5-a]pyrazin-2(3H)-yl 4-(4-(prop-2-ynyloxy)phenyl)piperazine-1-carboxylate], in assay [1] (mouse brain (mem) proteome), the “LYPLA1 … % @ 10 μM” value is recorded as 0% @. Moreover, in assay [2] (mouse brain (mem) proteome), the “LYPLA2 … % @ 10 μM” value amounted to 0% @. Besides, the “ABHD12 … % @ 10 μM” value in assay [3] amounted to 0% @. The “ABHD3 … % @ 10 μM” value in assay [4] was 75% @. Further, the “PLA2G7 in vitro enzyme activity, % @ 1 μM” value (from here on “PLA2G7 … % @ 1 μM”) in assay [5] was 100% @.
`C#CCOc1ccc(N2CCN(C(=O)ON3C(=O)[C@H]4CN(CC5CCN(Cc6ccccc6)CC5)CCN4C3=O)CC2)cc1` [Compound 47, (R)-7-((1-benzylpiperidin-4-yl)methyl)-1,3-dioxo-hexahydroimidazo[1,5-a]pyrazin-2(3H)-yl 4-(4-(prop-2-ynyloxy)phenyl)piperazine-1-carboxylate]: the “LYPLA1 … % @ 10 μM” value in assay [1] (mouse brain (mem) proteome) was found to be 0% @. Moreover, the “LYPLA2 … % @ 10 μM” value in assay [2] (mouse brain (mem) proteome) was 0% @. Also, the “ABHD12 … % @ 10 μM” value in assay [3] came to 0% @. The “ABHD3 … % @ 10 μM” value in assay [4] was 0% @. The “PLA2G7 … % @ 1 μM” value in assay [5] is reported as 100% @.
As for `C#Cc1ccc(CCC2CCN(C(=O)ON3C(=O)[C@@H]4CN(C(=O)N5CCOCC5)CCN4C3=O)CC2)cc1` [Compound 48, (S)-7-(morpholine-4-carbonyl)-1,3-dioxo-hexahydroimidazo[1,5-a]pyrazin-2(3H)-yl 4-(4-ethynylphenethyl)piperidine-1-carboxylate], in assay [1] (mouse brain (mem) proteome), the “LYPLA1 in vitro enzyme activity, % @ 1 μM” value came to 75% @. Further, the “LYPLA2 in vitro enzyme activity, % @ 1 μM” value in assay [2] (mouse brain (mem) proteome) is on record as 75% @. Moreover, the “ABHD12 … % @ 10 μM” value in assay [3] was 50% @. Further, the “ABHD3 … % @ 10 μM” value in assay [4] is 0% @. Also, the “PLA2G7 … % @ 10 μM” value in assay [5] was 75% @.
On to `O=C(ON1C(=O)C2CN(Cc3ccc(Oc4ccccc4)cc3)CCN2C1=O)N1CCC(c2ccccc2)CC1` (stereo not drawn) [Compound 38, 1,3-dioxo-7-(4-phenoxybenzyl)hexahydroimidazo[1,5-a]pyrazin-2(3H)-yl 4-phenylpiperidine-1-carboxylate], for which the “LYPLA1 in vitro enzyme activity, % @ 20 μM” value in assay [1] (setting [6]) was 0% @. In addition, in assay [2] (setting [6]), the “LYPLA2 in vitro enzyme activity, % @ 20 μM” value is 0% @.
With `COc1ccc(N2CCN(C(=O)ON3C(=O)[C@@H]4CN(CC5CCN(Cc6ccccc6)CC5)CCN4C3=O)CC2)cc1` [Compound 42, (S)-7-((1-benzylpiperidin-4-yl)methyl)-1,3-dioxo-hexahydroimidazo[1,5-a]pyrazin-2(3H)-yl 4-(4-methoxyphenyl)piperazine-1-carboxylate], the “LYPLA1 … % @ 10 μM” value in assay [1] (mouse brain (mem) proteome) stood at 50% @. The “LYPLA2 … % @ 10 μM” value in assay [2] (mouse brain (mem) proteome) worked out at 100% @. In addition, the “ABHD12 … % @ 10 μM” value in assay [3] was found to be 0% @. Further, in assay [4], the “ABHD3 … % @ 10 μM” value is reported as 0% @. Also, the “PLA2G7 … % @ 1 μM” value in assay [5] amounted to 100% @.
`COc1ccc(N2CCN(C(=O)ON3C(=O)[C@H]4CN(CC5CCN(Cc6ccccc6)CC5)CCN4C3=O)CC2)cc1` [Compound 43, (R)-7-((1-benzylpiperidin-4-yl)methyl)-1,3-dioxo-hexahydroimidazo[1,5-a]pyrazin-2(3H)-yl 4-(4-methoxyphenyl)piperazine-1-carboxylate]: the “LYPLA1 … % @ 10 μM” value in assay [1] (mouse brain (mem) proteome) was found to be 0% @. Further, the “LYPLA2 … % @ 10 μM” value in assay [2] (mouse brain (mem) proteome) was found to be 0% @. Moreover, the “ABHD12 … % @ 10 μM” value in assay [3] worked out at 0% @. The “ABHD3 … % @ 10 μM” value in assay [4] was determined as 0% @. In addition, in assay [5], the “PLA2G7 … % @ 1 μM” value stood at 100% @.
As for `O=C(ON1C(=O)[C@@H]2CN(Cc3ccc(Br)cc3)CCN2C1=O)N1CCC(CCc2ccc(Cl)cc2)CC1` [Compound 40, (S)-7-(4-bromobenzyl)-1,3-dioxohexahydroimidazo[1,5-a]pyrazin-2(3H)-yl4-(4-chlorophenethyl)piperidine-1-carboxylate], the “LYPLA1 … % @ 10 μM” value in assay [1] (mouse brain (mem) proteome) turned out to be 50% @. Besides, the “LYPLA2 … % @ 10 μM” value in assay [2] (mouse brain (mem) proteome) is 50% @. In addition, in assay [3], the “ABHD12 … % @ 10 μM” value is on record as 0% @. For the same molecule, the “ABHD3 … % @ 10 μM” value in assay [4] was determined as 0% @. In assay [5], the “PLA2G7 … % @ 10 μM” value came out at 100% @.
As to `O=C(ON1C(=O)C2CN(C(=O)N3CCOCC3)CCN2C1=O)N1CCC(CCc2ccc(Cl)cc2)CC1` (stereo not drawn) [Compound 1, 7-(morpholine-4-carbonyl)-1,3-dioxohexahydroimidazo[1,5-a]pyrazin-2(3H)-yl 4-(4-chloro-phenethyl)piperidine-1-carboxylate], the inhibition at 1 µM turned out to be 100% in assay [1] (1 μM compound, 30 min, one replicate, read-out: LYPLA1 % INH 1 μM) and 100% in assay [2] (1 μM compound, 30 min, one replicate, read-out: LYPLA2 % INH 1 μM). Besides, the inhibition at 10 µM in assay [1] (10 μM compound, 30 min, one replicate, read-out: LYPLA1 % INH 10 μM) was 100%; in assay [2] (10 μM compound, 30 min, one replicate, read-out: LYPLA2 % INH 10 μM), 100%. Moreover, the inhibition at 100 µM in assay [1] (100 μM compound, 30 min, one replicate, read-out: LYPLA1 % INH 100 μM) turned out to be 100%; in assay [2] (100 μM compound, 30 min, one replicate, read-out: LYPLA2 % INH 100 μM), 100%.
